Patent US20230287217A1, “Zwitterionic Cell-Permeant and Water-Soluble Rhodamine Dyes for Quantitative Imaging Applications” (OREGON HEALTH & SCIENCE UNIVERSITY, priority 2020, published 2023)

Assays:
[1] = UV-Vis absorption and fluorescence spectroscopy (spectral properties in aqueous media / PBS buffer); assay type: physicochemical; design: Brightness: unit not given here; details: for Brightness / Stokes Shift (nm) / FWHMabs (nm) / λabs (nm) / FWHem (nm) / λem (nm) / ε (M^-1 cm-1) / ϕ: aqueous media; for FWHMabs (nm): absorption band width; for λabs (nm): absorption maximum; for FWHem (nm): emission band width; for λem (nm): emission maximum; for ε (M^-1 cm-1): extinction coefficient from Beer's Law plots; for ϕ: relative quantum yield, TMR and SiTMR as reference
Procedure: UV-Vis and fluorescence spectra were collected on a SpectraMax M5 spectrometer with a Microplate reader (Molecular Devices, Sunnyvale, CA). All absorbance spectra were reference corrected. Extinction coefficient was calculated from Beer’s Law plots of absorbance versus concentration. Relative quantum yields are reported using TMR and SiTMR as reference.

[2] = Absorption and fluorescence stability against solvent polarity changes (dioxane 20-80% in DI water); assay type: physicochemical; details: compared with base fluorophores TMR and SiTMR (SiR)
From the text: FIG. 2D graphs normalized absorption (left) and fluorescence spectra (right) of fluorophores with varied percentages of dioxane (20-80%) in DI water resulting the polarity of the screening solvent systems changing in a gradient manner.
A. general rhodamine fluorophore structures including the classic TMR, SiTMR, and the sulfonated versions. […] This structural change results because the carboxylate anion attacks the central carbon forming a spirolactone, which is both colorless and non-fluorescent. […] C. […] This change in both absorbance and fluorescence intensity was alleviated using our sulfonated versions.

Structure (SMILES)	brightness compared with the base fluorophore SiTMR ([1]; PBS buffer)	Brightness [1]	Stokes Shift (nm) [1]	FWHMabs (nm) [1]	λabs (nm) [1]	FWHem (nm) [1]	λem (nm) [1]	ε (M^-1 cm-1) [1]	ϕ [1]	stability of absorbance and fluorescence intensity against solvent polarity changes [2]
Cc1ccccc1C1=C2C=C/C(=[N+](/C)CCCS(=O)(=O)[O-])C=C2[Si](C)(C)c2cc(N(C)C)ccc21 [OF650]	five time greater	55	19 nm	33 nm	649 nm	40 nm	668 nm	125,500 M^-1 cm-1	0.44	substantially improved stability
CN(C)c1ccc2c(c1)[Si](C)(C)C1=CC(=[N+](C)C)C=CC1=C2c1ccccc1C(=O)O [SiR]	–	7	20 nm	39 nm	642 nm	41 nm	662 nm	19,200 M^-1 cm-1	0.35	diminished rapidly
Cc1ccccc1-c1c2cc/c(=[N+](/C)CCCS(=O)(=O)[O-])cc-2oc2cc(N(C)C)ccc12 [OF550]	–	59	23 nm	33 nm	552 nm	40 nm	575 nm	97,300 M^-1 cm-1	0.61	substantially improved stability
Cc1cc(C(=O)NCc2ccc(COc3nc(N)nc4[nH]cnc34)cc2)ccc1-c1c2cc/c(=[N+](/C)CCCS(=O)(=O)[O-])cc-2oc2cc(N(C)C)ccc12 [OF550SNAP, (E)((9-(4-((4-(((2-amino-9H-purin-6-yl)oxy)methyl)benzyl)carbamoyl)-2-methylphenyl)-6-(dimethylamino)-3H-xanthenylidene)(methyl)ammonio)propane-1-sulfonate]	–	21	24 nm	38 nm	556 nm	43 nm	580 nm	59,500 M^-1 cm-1	0.36	–
Cc1cc(C(=O)O)ccc1-c1c2cc/c(=[N+](/C)CCCS(=O)(=O)[O-])cc-2oc2cc(N(C)C)ccc12 [OF550COOH, (E)((9-(4-carboxy-2-methylphenyl)-6-(dimethylamino)-3H-xanthenylidene)(methyl)ammonio)propane-1-sulfonate]	–	78	24 nm	33 nm	554 nm	42 nm	578 nm	112,600 M^-1 cm-1	0.69	–
